The source of these data is patent US10040789B2, “1,3,4-thiadiazole compounds and their use in treating cancer” (AstraZeneca AB, priority 2015, dated 2018).

In general, IC50 refers to the midpoint of a concentration-inhibition curve.

Each structure is given as a SMILES string. Where two headings read alike, the source gives them in different places.

The test system of one assay is NCI-H1703 cells. As to the kind of experiment: GLS Cell Proliferation Assay (NCI-H1703 cell proliferation). Type of assay: cell-based. From the text: (§1) The following assays were used to measure the effects of the compounds described herein: a) GLS Enzyme Potency Assay; b) GLS Cell Potency Assay; c) GLS Cell Proliferation Assay. During the description of the assays, generally: • i. The following abbreviations have been used: CO2=Carbon dioxide; DMEM=Dulbecco's Modified Eagle Medium; DMSO=Dimethyl sulphoxide; EDTA=Ethylenediaminetetraacetic acid; EGTA=Ethylene glycol tetraacetic acid; FCS=Foetal calf serum; h=Hour(s); NBS=Non-binding surface; SDS=Sodium dodecyl sulphate; TRIS=Tris(Hydroxymethyl)aminomethane. • ii. IC50 values were calculated using a smart fitting model in Genedata.
Assay c): GLS Cell Proliferation Assay
The ability of compounds to inhibit cell growth was measured using a 384 well plate NCI-H1703 cell proliferation assay. NCI-H1703 cells were grown in phenol red free RPMI1640, 10% FCS and 2 mM glutamine and seeded at a density of 750 cells per well in 40 μl of growth medium into clear-bottom 384 well assay plates (Corning product code 3712) and incubated for 24 h at 37° C., 5% CO2. Test compounds were prepared by dilution in 100% DMSO to give the correct dose range for 12 point concentration response and an appropriate volume (5-120 nl) dispensed directly into the assay plates containing plated cells. DMSO concentration was maintained at 0.3% by back filling with DMSO solution. Plates were incubated for 5 days at 37° C., 5% CO2, Sytox Green and Saponin added to final concentration of 2 μM and 0.25% respectively and incubated for 6 h prior to analysis. Plates were read on an Acumen eX3 (TTP Labtech) using 488 nm excitation and FITC filter set (500-530 nm) for emission. IC50 values were calculated by curve fitting to max inhibition of day zero growth using GeneData software analysis.

In a further assay the target is GLS1 (Homo sapiens (Human), UniProt O94925). As to the kind of experiment: GLS Enzyme Potency Assay (Glutamate Oxidase/AmplexRed coupled assay). It counts as biochemical.
GLS1, sequence (O94925 63-669): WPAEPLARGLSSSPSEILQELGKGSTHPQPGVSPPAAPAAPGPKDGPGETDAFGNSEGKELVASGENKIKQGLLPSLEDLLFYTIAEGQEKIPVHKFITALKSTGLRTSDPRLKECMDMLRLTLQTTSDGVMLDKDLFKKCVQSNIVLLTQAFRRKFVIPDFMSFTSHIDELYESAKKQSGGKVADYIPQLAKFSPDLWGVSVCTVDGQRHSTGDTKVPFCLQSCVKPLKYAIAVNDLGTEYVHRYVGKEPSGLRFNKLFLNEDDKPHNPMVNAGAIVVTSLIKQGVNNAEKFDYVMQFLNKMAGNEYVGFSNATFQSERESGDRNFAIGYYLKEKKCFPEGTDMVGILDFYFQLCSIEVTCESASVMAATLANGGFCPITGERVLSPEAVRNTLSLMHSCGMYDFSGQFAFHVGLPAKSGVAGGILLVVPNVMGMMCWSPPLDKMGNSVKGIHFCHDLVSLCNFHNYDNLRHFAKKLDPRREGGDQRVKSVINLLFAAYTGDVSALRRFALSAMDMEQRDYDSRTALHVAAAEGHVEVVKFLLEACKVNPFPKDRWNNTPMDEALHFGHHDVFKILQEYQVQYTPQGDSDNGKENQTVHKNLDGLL
Excerpt: as §1
Assay a): GLS Enzyme Potency Assay
A Glutamate Oxidase/AmplexRed coupled assay was used to measure the ability of compounds to bind to and inhibit the activity of GLS1 in vitro. […] GLS1 was diluted to 2×working concentration and incubated at room temperature to allow the tetrameric/dimeric forms to reach steady state. Assay measurements were performed in buffer comprising 50 mM TRIS pH 7.8, 100 mM NaPO4, pH 7.8, 0.001% v/v Tween20. […] DMSO concentration was maintained at 2% by back filling with DMSO solution. […] 3 μL of 100 mM glutamine diluted in assay buffer was then added and the reaction incubated at room temperature for 60 minutes. […] An artefact version of the assay where the 6His tagged GLS protein and glutamine were replaced with assay buffer was also used to rule out non specific effects on the assay components.

For assay [1], the target named is cellular GLS activity in PC3 cells (Homo sapiens (Human), UniProt O94925). As to the kind of experiment: GLS Cell Potency Assay (PC3 coupled assay measuring cellular glutamate depletion). Type of assay: cell-based. Particulars: PC3 cells, 6 h incubation, cellular glutamate depletion; read-out: Assay b) GLS cell MOA Mean IC50.
cellular GLS activity in PC3 cells, sequence (O94925 55-669): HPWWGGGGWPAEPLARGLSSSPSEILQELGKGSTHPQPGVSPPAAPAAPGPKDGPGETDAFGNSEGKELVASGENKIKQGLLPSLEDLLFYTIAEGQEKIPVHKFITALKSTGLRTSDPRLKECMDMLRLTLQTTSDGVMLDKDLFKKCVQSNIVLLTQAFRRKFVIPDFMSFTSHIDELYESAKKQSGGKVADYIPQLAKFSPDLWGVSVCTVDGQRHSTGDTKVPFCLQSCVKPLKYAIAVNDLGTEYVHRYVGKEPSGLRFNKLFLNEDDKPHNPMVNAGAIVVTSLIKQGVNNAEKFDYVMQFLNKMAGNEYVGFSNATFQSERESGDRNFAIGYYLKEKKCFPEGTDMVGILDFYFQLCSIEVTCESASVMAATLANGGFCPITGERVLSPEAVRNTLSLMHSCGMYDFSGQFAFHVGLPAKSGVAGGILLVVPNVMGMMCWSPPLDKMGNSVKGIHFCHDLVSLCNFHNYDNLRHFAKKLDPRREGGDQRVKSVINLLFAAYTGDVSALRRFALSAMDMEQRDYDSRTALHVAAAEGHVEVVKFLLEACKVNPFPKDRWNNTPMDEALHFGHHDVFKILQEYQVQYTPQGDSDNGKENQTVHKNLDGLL
Excerpt: as §1
Assay b): GLS Cell Potency Assay
Compounds were assessed for their potential to inhibit cellular GLS activity by use of a PC3 coupled assay measuring cellular glutamate depletion. […] DMSO concentration was maintained at 0.3% by back filling with DMSO solution. PC3 cells were grown in phenol free DMEM, 10% dialyzed FCS, 2 mM glutamine and following dispersal by trypsinisation were plated at 5.6×10^3 cells per well in 40 μl of growth medium directly into the 384 well assay plates containing dispensed compound. After incubation for 6 h at 37° C., 5% CO2 growth media was aspirated and cells lysed in 15 μl of buffer containing 10 mM TRIS pH7.4, 100 mM NaCl, 1 mM EDTA, 1 mM EGTA, 1 mM NaF, 20 mM Na4P2O7, 2 mM Na3VO4, 1% Triton X-100, 10% glycerol, 0.1% SDS and 0.5% deoxycholate. 4 μl Of cell lysate was then transferred to a 384 well NBS plate (Corning product code 3575) and 35 μl of […] Amplex Red, 0.1375 U/mL Horseradish Peroxidase, 0.044 U/mL glutamate oxidase, 100 mM TRIS pH7.5 was added.

The mark [2] stands for this setting: Homo sapiens, 120 h; NCI-H1703 cells, 5 days incubation, Sytox Green; read-out: Assay c) Prolif Mean IC50.
The mark [3] stands for this setting: recombinant 6His tagged GLS protein (amino acids 63-669), 60 minutes reaction with glutamine.
Where [4] appears, read: Homo sapiens, NCI-H1703, 120 h, NCI-H1703 cells, 5 days incubation, Sytox Green; read-out: Assay c) Prolif Mean IC50.
Setting [5] is: NCI-H1703 cells, 5 days incubation, Sytox Green; read-out: Assay c) Prolif Mean IC50.

With `CN1CCc2ccccc2[C@H]1C(=O)Nc1nnc(N[C@@H]2CCN(c3cccnn3)C2)s1` [Example 8(a), (1S)-2-methyl-N-[5-[[(3R)-1-pyridazin-3-ylpyrrolidin-3-yl]amino]-1,3,4-thiadiazol-2-yl]-3,4-dihydro-1H-isoquinoline-1-carboxamide], the IC50 in the assay with NCI-H1703 cells (setting [2]) was determined as 8.81 nM; at GLS1 (setting [3]), 53 nM; in assay [1] it was 1.91 nM.
`O=C(Nc1nnc(N[C@@H]2CCN(c3cccnn3)C2)s1)[C@H](c1cccc(OC(F)(F)F)c1)N1CCC1` [Example 7(a), (2S)-2-(azetidin-1-yl)-N-[5-[[(3R)-1-pyridazin-3-ylpyrrolidin-3-yl]amino]-1,3,4-thiadiazol-2-yl]-2-[3-(trifluoromethoxy)phenyl]acetamide]: the IC50 was found to be 6.24 nM in the assay on NCI-H1703 cells (setting [2]), 1330 nM at GLS1 (setting [3]) and 8.61 nM in assay [1].
In the case of `COc1ccc([C@H](C(=O)Nc2nnc(N[C@@H]3CCN(c4cccnn4)C3)s2)N(C)C)cc1` [Example 15, (2R)-2-(dimethylamino)-2-(4-methoxyphenyl)-N-[5-[[(3R)-1-pyridazin-3-ylpyrrolidin-3-yl]amino]-1,3,4-thiadiazol-2-yl]acetamide], the IC50 was 152 nM with NCI-H1703 cells (setting [4]), 3750 nM on GLS1 (setting [3]) and 22.2 nM in assay [1].
Regarding `Cc1cccc([C@@H](C(=O)Nc2nnc(N[C@@H]3CCN(c4cccnn4)C3)s2)N(C)C)c1` [Example 10, (2S)-2-(dimethylamino)-2-(3-methylphenyl)-N-[5-[[(3R)-1-pyridazin-3-ylpyrrolidin-3-yl]amino]-1,3,4-thiadiazol-2-yl]acetamide], the IC50 in the assay with NCI-H1703 cells (setting [2]) was found to be 21.2 nM; on GLS1 (setting [3]) it was 59.2 nM; in assay [1], 2.12 nM.
As for `CN(C)[C@H](C(=O)Nc1nnc(N[C@@H]2CCN(c3cccnn3)C2)s1)c1cccc(OC(F)F)c1` [Example 3(a), (2S)-2-[3-(difluoromethoxy)phenyl]-2-(dimethylamino)-N-[5-[[(3R)-1-pyridazin-3-ylpyrrolidin-3-yl]amino]-1,3,4-thiadiazol-2-yl]acetamide], the IC50 in the assay on NCI-H1703 cells (setting [2]) is 12.7 nM; at GLS1 (setting [3]), 261 nM; in assay [1], 11.2 nM.
On to `COc1cccc([C@H](C(=O)Nc2nnc(N[C@@H]3CCN(c4cccnn4)C3)s2)N2CCC2)c1` (single isomer, unassigned) [Example 6(b)], for which the IC50 with NCI-H1703 cells (setting [4]) stood at 80.8 nM; on GLS1 it was 944 nM; in assay [1] it was 29.7 nM.
`CN(C)[C@H](C(=O)Nc1nnc(N[C@@H]2CCN(c3cccnn3)C2)s1)c1cccc(OC(F)(F)F)c1` [Example 4(a), (2S)-2-(dimethylamino)-N-[5-[[(3R)-1-pyridazin-3-ylpyrrolidin-3-yl]amino]-1,3,4-thiadiazol-2-yl]-2-[3-(trifluoromethoxy)phenyl]acetamide]: the IC50 in the assay on NCI-H1703 cells (setting [5]) amounted to 8.41 nM; at GLS1 (setting [3]), 56.4 nM; in assay [1], 0.405 nM.
For `CN(C)[C@H](C(=O)Nc1nnc(N[C@@H]2CCN(c3cccnn3)C2)s1)c1cccc(OC(F)(F)F)c1` [Example 18, (2S)-2-(dimethylamino)-N-[5-[[(3R)-1-pyridazin-3-ylpyrrolidin-3-yl]amino]-1,3,4-thiadiazol-2-yl]-2-[3-(trifluoromethoxy)phenyl]acetamide], in that order: 3.51 nM, 182 nM and 1.1 nM.
In the case of `Cc1ccc([C@@H](C(=O)Nc2nnc(N[C@@H]3CCN(c4cccnn4)C3)s2)N(C)C)cc1` [Example 9, (2S)-2-(dimethylamino)-2-(4-methylphenyl)-N-[5-[[(3R)-1-pyridazin-3-ylpyrrolidin-3-yl]amino]-1,3,4-thiadiazol-2-yl]acetamide], the IC50 was 44.8 nM with NCI-H1703 cells (setting [2]), 132 nM at GLS1 (setting [3]) and 2.81 nM in assay [1].
